Results from patent publication US6211223A, “Indole derivatives useful in therapy” (Pfizer Inc., priority 1997, dated 2001).

Experiments:
[1] = target: T1, cloned human ETA receptor (Homo sapiens, UniProt P25101); test: Test A: Binding Assay, competition with 125I-ET-1, Binding to ETA Receptors (selectivity versus Binding to ETB Receptors)
T1 sequence (P25101 21-427): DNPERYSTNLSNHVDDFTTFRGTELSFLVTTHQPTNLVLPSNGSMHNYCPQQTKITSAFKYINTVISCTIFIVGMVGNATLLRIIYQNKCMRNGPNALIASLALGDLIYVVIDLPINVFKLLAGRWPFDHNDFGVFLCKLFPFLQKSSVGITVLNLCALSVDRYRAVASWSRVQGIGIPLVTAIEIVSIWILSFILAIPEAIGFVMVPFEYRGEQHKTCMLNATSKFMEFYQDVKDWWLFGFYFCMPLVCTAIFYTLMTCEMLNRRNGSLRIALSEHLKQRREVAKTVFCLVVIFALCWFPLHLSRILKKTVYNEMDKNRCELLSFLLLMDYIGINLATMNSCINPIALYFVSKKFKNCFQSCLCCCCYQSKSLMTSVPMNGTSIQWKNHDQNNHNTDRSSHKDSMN
Method: Competition between test compounds and ^125 I-ET-1 binding to human endothelin receptors is determined as follows.
(§1) 25 μl of a 30 pM solution of [^125 I]Tyr^13 ET-1 (specific activity 2,200 Ci/mM) is mixed with 25 μl samples of test compound (final concentrations in the range 0.1 nM-50,000 nM). 200 μl of a solution containing cloned human ETA receptor (0.75 pmoles receptor protein/ml), 50 mM Tris, 0.5 mM CaCl2, 0.1% human serum albumen, 0.1% bacitracin, 0.05% Tween 20, pH 7.4 is added. The solution is mixed at 37° C. for 2 hours. After the incubation, the unbound ligand is separated from receptor bound ligand by filtration with a Brandel cell harvester, followed by three washes of buffer. Filter papers are counted for radioactivity, and the IC50 (the concentration of test compound at which 50% of the radiolabelled compound is unbound) determined for the concentration range tested.
as §1, with “concentration” for “concentrations in the range”, “ETB” for “ETA”, “(0.25” for “(0.75”

neointimal formation = settings: rats, balloon angioplasty; S. Douglas et al, Circ Res, 75, 1994; cited from earlier work

SMILES | selectivity for ETA receptors over ETB receptors ([1]; ETA over ETB) | IC50 (ETA) relative to that of its enantiomer ([1]; fraction of the IC50 (ETA) of the (-)-enantiomer) | Ki ([1]; human ETA receptor, read-out: binding affinity for ETA receptors (Ki)) [nM] | reduction in neointimal formation relative to control animals (neointimal formation) [%]
COc1cc(C)ccc1S(=O)(=O)NC(=O)[C@@H](c1ccc2c(c1)OCO2)c1cn(C)c2cc(C(=O)O)ccc12 [Example 1, (S)-(+)-3-{1-(1,3-Benzodioxol-5-yl)-2-[(2-methoxy-4-methylphenyl)sulfonyl-amino]-2-oxoethyl}-1-methyl-1H-indole-6-carboxylic acid] | approximately 400 | approximately one quarter | 4.18 | 
CCCOc1ccc2c(c1)[C@@H](c1ccc(OC)cc1OCC(=O)O)[C@H](C(=O)O)[C@H]2c1ccc2c(c1)OCO2 [SB-209670] |  |  |  | 50
